Each structure is given as a SMILES string.

Holding throughout (test): KINOMEscan (ScanMAX) kinase profiling
What all share (type): binding

The target in experiment [1] is T1, panel of 468 kinases (Homo sapiens, UniProt P54756).
T1 construct: purchased KINOMEscan (ScanMAX) service
The conditions noted are these: EPHA5; 1 μM; read-out: % control.

The target in experiment [2] is T2, panel of 468 kinases (Homo sapiens, UniProt P19525).
T2 construct: purchased KINOMEscan (ScanMAX) service
The conditions noted are these: PRKR; 1 μM; read-out: % control.

In experiment [3] the target is T3, panel of 468 kinases (Homo sapiens, UniProt Q9H0K1).
T3 construct: purchased KINOMEscan (ScanMAX) service
The settings on record: SIK2; 1 μM; read-out: % control.

The target in experiment [4] is T4, panel of 468 kinases (Homo sapiens, UniProt Q9UQM7).
T4 construct: purchased KINOMEscan (ScanMAX) service
The settings on record: CAMK2A; 1 μM; read-out: % control.

Experiment [5] deals with T5, panel of 468 kinases (Homo sapiens, UniProt O00750).
T5 construct: purchased KINOMEscan (ScanMAX) service
T5 sequence (O00750 whole entry): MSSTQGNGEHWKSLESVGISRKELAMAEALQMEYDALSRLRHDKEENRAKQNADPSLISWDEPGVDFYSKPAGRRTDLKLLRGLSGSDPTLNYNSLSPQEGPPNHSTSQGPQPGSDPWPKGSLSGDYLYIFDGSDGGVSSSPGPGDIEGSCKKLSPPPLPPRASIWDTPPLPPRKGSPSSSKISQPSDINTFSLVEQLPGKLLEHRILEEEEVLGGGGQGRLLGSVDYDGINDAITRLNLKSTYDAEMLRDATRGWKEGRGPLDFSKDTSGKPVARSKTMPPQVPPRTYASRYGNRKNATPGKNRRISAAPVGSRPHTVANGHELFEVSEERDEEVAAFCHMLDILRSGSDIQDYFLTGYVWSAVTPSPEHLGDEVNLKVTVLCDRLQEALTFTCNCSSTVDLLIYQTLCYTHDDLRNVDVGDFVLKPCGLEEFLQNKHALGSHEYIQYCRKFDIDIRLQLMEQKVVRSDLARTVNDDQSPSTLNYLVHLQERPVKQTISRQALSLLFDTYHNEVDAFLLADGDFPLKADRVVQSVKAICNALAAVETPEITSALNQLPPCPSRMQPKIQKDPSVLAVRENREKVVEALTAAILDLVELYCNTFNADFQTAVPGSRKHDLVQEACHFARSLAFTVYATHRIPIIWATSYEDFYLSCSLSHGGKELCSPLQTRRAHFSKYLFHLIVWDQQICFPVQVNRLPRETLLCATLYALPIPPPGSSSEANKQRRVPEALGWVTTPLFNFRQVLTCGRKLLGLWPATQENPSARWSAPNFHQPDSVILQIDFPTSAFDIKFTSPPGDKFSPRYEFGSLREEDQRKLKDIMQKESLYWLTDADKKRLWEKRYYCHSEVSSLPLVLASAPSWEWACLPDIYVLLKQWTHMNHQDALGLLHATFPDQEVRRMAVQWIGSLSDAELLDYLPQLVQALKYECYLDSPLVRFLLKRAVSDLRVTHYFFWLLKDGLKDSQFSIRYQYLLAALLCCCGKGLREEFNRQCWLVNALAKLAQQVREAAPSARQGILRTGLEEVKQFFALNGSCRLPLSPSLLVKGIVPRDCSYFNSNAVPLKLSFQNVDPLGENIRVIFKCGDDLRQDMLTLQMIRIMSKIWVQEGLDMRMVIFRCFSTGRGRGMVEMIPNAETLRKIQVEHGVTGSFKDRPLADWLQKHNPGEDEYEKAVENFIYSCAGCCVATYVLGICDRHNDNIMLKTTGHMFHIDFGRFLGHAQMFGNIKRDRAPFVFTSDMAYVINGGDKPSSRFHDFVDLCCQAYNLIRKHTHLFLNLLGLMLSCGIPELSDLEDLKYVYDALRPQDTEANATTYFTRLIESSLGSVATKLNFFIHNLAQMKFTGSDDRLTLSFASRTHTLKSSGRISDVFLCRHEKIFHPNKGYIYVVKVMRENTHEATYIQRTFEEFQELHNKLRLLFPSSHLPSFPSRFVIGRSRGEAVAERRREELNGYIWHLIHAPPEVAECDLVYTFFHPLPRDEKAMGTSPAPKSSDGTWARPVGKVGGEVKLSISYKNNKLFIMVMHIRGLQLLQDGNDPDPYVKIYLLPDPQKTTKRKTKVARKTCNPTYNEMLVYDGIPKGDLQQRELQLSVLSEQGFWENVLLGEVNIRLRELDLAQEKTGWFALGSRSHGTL
The conditions noted are these: PIK3C2B; 1 μM; read-out: % control.

Experiment [6] addresses T6, panel of 468 kinases (Homo sapiens, UniProt P32298).
T6 construct: purchased KINOMEscan (ScanMAX) service
The conditions noted are these: GRK4; 1 μM; read-out: % control.

For experiment [7], the target named is T7, panel of 468 kinases (Homo sapiens, UniProt Q8TF76).
T7 construct: purchased KINOMEscan (ScanMAX) service
T7 sequence (Q8TF76 1-798): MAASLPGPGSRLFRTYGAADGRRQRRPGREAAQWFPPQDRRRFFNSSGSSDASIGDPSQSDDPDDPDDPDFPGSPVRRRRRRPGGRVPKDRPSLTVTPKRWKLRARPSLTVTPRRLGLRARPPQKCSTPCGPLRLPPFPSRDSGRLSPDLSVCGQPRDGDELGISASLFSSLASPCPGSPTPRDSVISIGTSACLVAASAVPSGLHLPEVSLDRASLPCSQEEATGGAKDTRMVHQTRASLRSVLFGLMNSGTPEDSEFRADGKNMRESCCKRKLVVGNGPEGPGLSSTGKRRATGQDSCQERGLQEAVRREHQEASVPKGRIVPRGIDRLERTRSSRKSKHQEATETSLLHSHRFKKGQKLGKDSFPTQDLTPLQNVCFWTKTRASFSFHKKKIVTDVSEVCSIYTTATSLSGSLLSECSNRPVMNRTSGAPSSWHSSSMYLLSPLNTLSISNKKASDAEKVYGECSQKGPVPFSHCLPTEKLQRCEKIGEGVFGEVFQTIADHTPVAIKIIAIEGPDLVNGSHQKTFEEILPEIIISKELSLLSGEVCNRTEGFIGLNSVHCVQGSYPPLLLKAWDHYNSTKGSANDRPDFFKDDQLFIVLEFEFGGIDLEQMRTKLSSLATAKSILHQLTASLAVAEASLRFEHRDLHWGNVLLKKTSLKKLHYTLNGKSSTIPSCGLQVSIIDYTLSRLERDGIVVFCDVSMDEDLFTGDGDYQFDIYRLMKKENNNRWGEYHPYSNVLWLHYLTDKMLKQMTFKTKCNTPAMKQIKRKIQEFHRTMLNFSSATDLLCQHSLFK
The settings on record: HASPIN; 1 μM; read-out: % control.

Experiment [8] has as its target T8, panel of 468 kinases (Homo sapiens, UniProt P31749).
T8 construct: purchased KINOMEscan (ScanMAX) service
The conditions noted are these: AKT1; 1 μM; read-out: % control.

Experiment [9] concerns the target T9, panel of 468 kinases (Homo sapiens, UniProt Q52WX2).
T9 construct: purchased KINOMEscan (ScanMAX) service
The conditions noted are these: SBK1; 1 μM; read-out: % control.

For experiment [10], the target named is T10, panel of 468 kinases (Homo sapiens, UniProt Q99558).
T10 construct: purchased KINOMEscan (ScanMAX) service
T10 sequence (Q99558 whole entry): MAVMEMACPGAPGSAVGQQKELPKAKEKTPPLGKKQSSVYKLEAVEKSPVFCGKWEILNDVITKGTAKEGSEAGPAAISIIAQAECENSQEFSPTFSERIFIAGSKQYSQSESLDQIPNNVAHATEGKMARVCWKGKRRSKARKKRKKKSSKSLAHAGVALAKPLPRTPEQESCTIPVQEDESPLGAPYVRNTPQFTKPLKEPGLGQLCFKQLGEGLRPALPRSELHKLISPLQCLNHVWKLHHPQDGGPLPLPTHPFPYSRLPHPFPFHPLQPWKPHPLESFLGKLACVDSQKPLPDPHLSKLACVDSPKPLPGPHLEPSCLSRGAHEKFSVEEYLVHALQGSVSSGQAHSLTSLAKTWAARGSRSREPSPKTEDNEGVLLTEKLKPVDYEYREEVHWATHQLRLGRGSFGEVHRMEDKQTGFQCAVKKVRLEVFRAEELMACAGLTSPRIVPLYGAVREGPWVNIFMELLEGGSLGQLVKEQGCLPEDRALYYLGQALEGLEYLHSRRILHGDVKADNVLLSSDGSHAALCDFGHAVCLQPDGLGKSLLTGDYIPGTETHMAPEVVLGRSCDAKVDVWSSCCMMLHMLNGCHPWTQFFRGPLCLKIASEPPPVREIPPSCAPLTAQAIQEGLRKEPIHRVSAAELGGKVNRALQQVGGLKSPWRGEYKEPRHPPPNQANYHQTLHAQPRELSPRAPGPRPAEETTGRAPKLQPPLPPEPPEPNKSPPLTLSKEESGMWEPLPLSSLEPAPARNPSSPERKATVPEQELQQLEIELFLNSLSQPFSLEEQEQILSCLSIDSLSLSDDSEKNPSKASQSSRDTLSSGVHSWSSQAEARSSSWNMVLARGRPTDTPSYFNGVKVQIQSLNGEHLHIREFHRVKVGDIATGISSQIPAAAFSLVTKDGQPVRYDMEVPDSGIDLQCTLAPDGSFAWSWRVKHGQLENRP
The settings on record: NIK; 1 μM; read-out: % control.

Experiment [11] has as its target T11, panel of 468 kinases (Homo sapiens, UniProt Q9Y2U5).
T11 construct: purchased KINOMEscan (ScanMAX) service
T11 sequence (Q9Y2U5 1-619): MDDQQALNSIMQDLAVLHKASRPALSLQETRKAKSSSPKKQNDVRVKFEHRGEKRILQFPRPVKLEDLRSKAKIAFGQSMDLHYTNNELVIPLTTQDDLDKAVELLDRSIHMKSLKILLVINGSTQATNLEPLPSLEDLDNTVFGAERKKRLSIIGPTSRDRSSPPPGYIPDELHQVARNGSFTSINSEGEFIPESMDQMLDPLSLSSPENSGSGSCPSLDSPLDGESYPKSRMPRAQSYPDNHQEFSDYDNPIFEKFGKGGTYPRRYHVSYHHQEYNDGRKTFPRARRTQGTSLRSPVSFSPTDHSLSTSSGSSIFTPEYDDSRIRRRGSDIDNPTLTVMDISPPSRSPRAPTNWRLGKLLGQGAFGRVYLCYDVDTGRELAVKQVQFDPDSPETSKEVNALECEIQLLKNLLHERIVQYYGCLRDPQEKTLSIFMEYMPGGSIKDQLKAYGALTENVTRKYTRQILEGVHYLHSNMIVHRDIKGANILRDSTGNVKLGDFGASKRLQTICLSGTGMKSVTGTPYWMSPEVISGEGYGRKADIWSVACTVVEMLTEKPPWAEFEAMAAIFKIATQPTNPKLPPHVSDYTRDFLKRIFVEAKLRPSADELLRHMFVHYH
The settings on record: MAP3K2; 1 μM; read-out: % control.

T9 sequence (Q52WX2 whole entry): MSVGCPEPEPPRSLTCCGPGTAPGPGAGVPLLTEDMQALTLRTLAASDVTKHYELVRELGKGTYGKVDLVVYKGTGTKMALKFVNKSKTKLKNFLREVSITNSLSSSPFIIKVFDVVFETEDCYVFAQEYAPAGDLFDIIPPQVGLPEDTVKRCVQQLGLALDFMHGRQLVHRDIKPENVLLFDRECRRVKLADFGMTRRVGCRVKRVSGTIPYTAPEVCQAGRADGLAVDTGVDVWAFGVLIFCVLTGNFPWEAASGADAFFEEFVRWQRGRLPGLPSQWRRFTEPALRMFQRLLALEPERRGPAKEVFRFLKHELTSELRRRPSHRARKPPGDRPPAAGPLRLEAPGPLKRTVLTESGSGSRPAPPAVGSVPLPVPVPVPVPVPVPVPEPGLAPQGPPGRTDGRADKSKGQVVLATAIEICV
T2 sequence (P19525 whole entry): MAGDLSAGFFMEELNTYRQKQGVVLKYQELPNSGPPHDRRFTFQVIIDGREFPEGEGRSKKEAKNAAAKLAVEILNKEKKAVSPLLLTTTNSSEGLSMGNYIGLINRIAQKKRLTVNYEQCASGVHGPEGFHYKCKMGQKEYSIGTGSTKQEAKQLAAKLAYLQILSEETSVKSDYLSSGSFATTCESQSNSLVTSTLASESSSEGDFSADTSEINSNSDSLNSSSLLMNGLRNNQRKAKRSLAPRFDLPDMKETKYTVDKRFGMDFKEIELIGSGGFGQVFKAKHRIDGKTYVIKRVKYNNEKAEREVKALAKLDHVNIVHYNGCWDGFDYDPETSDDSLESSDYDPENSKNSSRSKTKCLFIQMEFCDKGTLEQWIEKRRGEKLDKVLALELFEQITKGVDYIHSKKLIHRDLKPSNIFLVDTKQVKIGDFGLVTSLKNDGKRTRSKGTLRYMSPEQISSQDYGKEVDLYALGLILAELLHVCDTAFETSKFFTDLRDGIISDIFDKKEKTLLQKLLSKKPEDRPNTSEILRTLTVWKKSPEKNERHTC
T8 sequence (P31749 whole entry): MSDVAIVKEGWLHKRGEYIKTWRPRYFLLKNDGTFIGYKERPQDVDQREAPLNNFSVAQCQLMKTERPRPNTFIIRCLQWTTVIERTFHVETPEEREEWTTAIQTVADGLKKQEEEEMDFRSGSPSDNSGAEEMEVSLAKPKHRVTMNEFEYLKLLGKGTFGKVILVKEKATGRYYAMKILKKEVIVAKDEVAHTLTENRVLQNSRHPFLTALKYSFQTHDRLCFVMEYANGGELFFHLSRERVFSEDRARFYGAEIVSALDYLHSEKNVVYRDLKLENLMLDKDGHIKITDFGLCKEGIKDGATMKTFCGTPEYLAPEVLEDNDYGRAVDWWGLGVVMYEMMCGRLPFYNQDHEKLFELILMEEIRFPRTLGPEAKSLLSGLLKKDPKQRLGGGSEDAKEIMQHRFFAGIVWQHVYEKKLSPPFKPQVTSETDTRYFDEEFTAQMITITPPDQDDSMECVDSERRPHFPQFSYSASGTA
T6 sequence (P32298 whole entry): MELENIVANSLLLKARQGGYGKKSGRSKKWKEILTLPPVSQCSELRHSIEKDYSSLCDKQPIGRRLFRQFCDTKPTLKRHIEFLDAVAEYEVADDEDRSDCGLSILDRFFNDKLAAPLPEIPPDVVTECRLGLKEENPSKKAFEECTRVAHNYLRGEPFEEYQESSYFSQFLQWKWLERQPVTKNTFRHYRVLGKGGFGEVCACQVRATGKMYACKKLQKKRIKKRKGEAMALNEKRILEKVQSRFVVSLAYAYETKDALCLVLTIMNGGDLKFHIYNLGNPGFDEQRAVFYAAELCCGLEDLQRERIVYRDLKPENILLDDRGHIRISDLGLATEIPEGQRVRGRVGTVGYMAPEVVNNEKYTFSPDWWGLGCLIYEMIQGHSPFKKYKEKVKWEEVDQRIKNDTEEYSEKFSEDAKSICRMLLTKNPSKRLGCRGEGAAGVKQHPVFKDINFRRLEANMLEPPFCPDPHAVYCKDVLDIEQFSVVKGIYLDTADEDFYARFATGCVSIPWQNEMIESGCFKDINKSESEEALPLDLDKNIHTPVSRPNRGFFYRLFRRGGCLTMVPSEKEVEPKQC

For the compound `CNc1nc(Nc2ccc(S(=O)(=O)N3CCC(N4CCOCC4)CC3)cc2OC)nc2[nH]cc(Cl)c12` [Compound 12, 5-chloro-N2-(2-methoxy-4-((4-morpholinopiperidin-1-yl)sulfonyl)phenyl)-N4-methyl-7H-pyrrolo[2,3-d]pyrimidine-2,4-diamine], the remaining binding at 1 µM at panel of 468 kinases [1], on panel of 468 kinases [2], on panel of 468 kinases [3], on panel of 468 kinases [4], at panel of 468 kinases [5] and on panel of 468 kinases [6] was 100% each time. In addition, the remaining binding at 1 µM on panel of 468 kinases [7] is 29%; on panel of 468 kinases [8], 100%; at panel of 468 kinases [9], 77%; on panel of 468 kinases [10] it was 9.2%; on panel of 468 kinases [11] it was 80%.
Regarding `CNc1nc(Nc2ccc(C(=O)N3CCC(N4CCOCC4)CC3)c3c2OCO3)nc2[nH]cc(Cl)c12` [Compound 75, (7-((5-chloro-4-(methylamino)-7H-pyrrolo[2,3-d]pyrimidin-2-yl)amino)benzo[d][1,3]dioxol-4-yl)(4-morpholinopiperidin-1-yl)methanone], the remaining binding at 1 µM on panel of 468 kinases [1] came out at 100%; at panel of 468 kinases [2], 100%; on panel of 468 kinases [3], 100%; on panel of 468 kinases [4], 70%; on panel of 468 kinases [5], 100%; at panel of 468 kinases [6], 41%. Further, the remaining binding at 1 µM at panel of 468 kinases [7] turned out to be 25%; on panel of 468 kinases [8] it was 100%; on panel of 468 kinases [9], 64%; at panel of 468 kinases [10] it was 0%; on panel of 468 kinases [11] it was 15%.
With `CNc1nc(Nc2ccc(P3(=O)CCN(C4CCOCC4)CC3)cc2OC)nc2[nH]cc(Cl)c12` [Compound 77, 4-(4-((5-chloro-4-(methylamino)-7H-pyrrolo[2,3-d]pyrimidin-2-yl)amino)-3-methoxyphenyl)-1-(tetrahydro-2H-pyran-4-yl)-1,4-azaphosphinane 4-oxide], the remaining binding at 1 µM was 100% on panel of 468 kinases [1]; 100% at panel of 468 kinases [2]; 100% at panel of 468 kinases [3]; 88% at panel of 468 kinases [4]; 96% at panel of 468 kinases [5]; 95% at panel of 468 kinases [6]. Further, the remaining binding at 1 µM at panel of 468 kinases [7] is 35%; at panel of 468 kinases [8], 100%; on panel of 468 kinases [9], 68%; on panel of 468 kinases [10] it was 16%; on panel of 468 kinases [11], 86%.

Values taken from patent publication US12479847B2 (DANA-FARBER CANCER INSTITUTE, INC., priority 2019, dated 2025).
